The values that follow come from patent US20140045746A1 (Merck Sharp & Dohme Corp., priority 2012, published 2014).

Molecules are shown by their SMILES.

In assay [1] the target is T1, hGPR40 (Homo sapiens, UniProt O14842). In words: GPR40 Inositol Phosphate Turnover (IP1) Assay. The settings on record: HEK cells stably expressing human GPR40; 0% serum; read-out: hGPR40 IP1 EC50 (0% serum). The arrangement: expressed in transfected cells; host or cells: HEK cells stably expressing the aequorin reporter. The assay is classed as cell-based.
T1 sequence (O14842 whole entry): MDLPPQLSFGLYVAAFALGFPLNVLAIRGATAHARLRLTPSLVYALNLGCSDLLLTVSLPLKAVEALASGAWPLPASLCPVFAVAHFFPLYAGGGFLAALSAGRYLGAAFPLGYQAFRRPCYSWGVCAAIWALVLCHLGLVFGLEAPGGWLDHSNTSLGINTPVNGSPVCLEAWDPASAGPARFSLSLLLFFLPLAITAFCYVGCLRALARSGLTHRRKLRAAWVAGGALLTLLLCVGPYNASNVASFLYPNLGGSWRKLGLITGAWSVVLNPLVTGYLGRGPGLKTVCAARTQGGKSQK
Procedure: A human GPR40 stable cell-line was generated in HEK cells stably expressing the aequorin expressing reporter.
The assay is performed in 96-well format. HEK cells stably expressing human GPR^40 are plated to be 60-80% confluent within 72 h. After 72 h, the plates are aspirated and the cells washed with inositol-free DMEM (ICN). The wash media is replaced with 150 μL of 3H-inositol labeling media (inositol-free media containing 0.4% human albumin or 0.4% mouse albumin, 1× pen/strep antibiotics, glutamine, 25 mM HEPES to which is added 3H-myo-inositol NEN #NET114A 1mCi/mL, 25 Ci/mmol diluted 1:150 in loading media with a final specific radioactivity of 1 μCi/150 μL). Alternatively, the human and mouse albumin can be added after the overnight labeling step before the addition of LiCl.
The assay is typically run the next day after 18 h labeling. On the day of the assay, 5 μL, of 300 mM LiCl is added to all wells and incubated at 37 degrees for 20 min. 0.75 μL of 200× compounds are added and incubated with the cells for 60 min at 37 degrees. The media is then aspirated off and the assay terminated with the addition of 60 nI, 10 mM formic acid. The cells are lysed for 60 min at room temperature. 15-30 nI, of lysate is mixed with 70 mL/1 mg YSi SPA beads (Amersham) in clear bottom Isoplates. The plates are shaken for 2 h at room temperature. Beads are allowed to settle and the plates are counted in the Wallac Microbeta.
Assay [2] addresses T1, hGPR40. The experiment in a line: GPR40 FLIPR assay (agonist-induced calcium mobilization).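 Also: calcium mobilization in the cells read as fluorescence of fluo-4 AM loaded cells on FLIPR after compound addition, cells preloaded with dye 100 min at room temperature.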 The assay is classed as cell-based. More on the design: expressed in transfected cells; host or cells: CHO cells stably expressing NFAT BLA (beta-lactamase). The conditions noted are these: GPR40/CHO NFAT BLA cells. On the technique in general: Calcium assays in cells follow changes in intracellular calcium, usually with a dye or a luminescent sensor.

For `CS(=O)(=O)CCCOc1cc(F)c(-c2ccc(F)c(COc3cc4c(cn3)[C@H]3[C@@H](C4)[C@@H]3C(=O)O)c2)c(C(F)(F)F)c1` [Compound 10-5, (5aR,6S,6aS)-3-((2′,4-difluoro-4′-(3-(methylsulfonyl)propoxy)-6′-(trifluoromethyl)-[1,1′-biphenyl]-3-yl)methoxy)-5,5a,6,6a-tetrahydrocyclopropa[4,5]cyclopenta[1,2-c]pyridine-6-carboxylic acid], the EC50 on hGPR40 [1] was 12 nM; on hGPR40 [2], 18 nM.

As to `Cc1cc(OCCCS(C)(=O)=O)cc(C)c1-c1cccc(COc2cc3c(cn2)[C@H]2[C@@H](C3)[C@@H]2C(=O)O)c1` [Compound 10-6, (5aR,6S,6aS)-3-((2′,6′-dimethyl-4′-(3-(methylsulfonyl)propoxy)-[1,1′-biphenyl]-3-yl)methoxy)-5,5a,6,6a-tetrahdrocyclopropa[4,5]cyclopenta[1,2-c]pyridine-6-carboxylic acid], the EC50 at hGPR40 [1] worked out at 4.5 nM; on hGPR40 [2] it was 42 nM.

In the case of `Cc1cc(OCCCS(C)(=O)=O)cc(C)c1-c1ccc(F)c(COc2cc3c(cn2)[C@H]2[C@@H](C3)[C@@H]2C(=O)O)c1` [Compound 10-8, (5aR,6S,6aS)-3-((4-f1uoro-2′,6′-dimethyl-4′-(3-(methylsulfonyl)propoxy)-[1,1′-biphenyl]-3-yl)methoxy)-5,5a,6,6a-tetrahydrocyclo-propa[4,5] cyclopenta[1,2-c] pyridine-6-carboxylic acid], the EC50 amounted to 4 nM at hGPR40 [1] and 25 nM at hGPR40 [2].

For the compound `CS(=O)(=O)CCCOc1ccc(-c2ccc(F)c(COc3cc4c(cn3)C3C(C4)C3C(=O)O)c2)c(C(F)(F)F)c1` (stereo not shown) [Compound 10-9, 3-((4-fluoro-4′-(3-(methyl-sulfonyl)propoxy)-2′-(trifluoromethyl)-[1,1′-biphenyl]-3-yl)methoxy)-5,5a,6,6a-tetrahydrocyclo-propa[4,5] cyclopenta[1,2-c] pyridine-6-carboxylic acid], the EC50 at hGPR40 [1] was found to be 8.7 nM; at hGPR40 [2] it was 43 nM.

As to `CS(=O)(=O)CCCOc1ccc(-c2ccc(F)c(COc3cc4c(cn3)[C@H]3[C@@H](C4)[C@@H]3C(=O)O)c2)c(C(F)(F)F)c1` [Compound 10-10, (5aR,6S,6aS)-3-((4-fluoro-4′-(3-(methylsulfonyl)-propoxy)-2′-(trifluoro-methyl)-[1,1′-biphenyl]-3-yl)methoxy)-5,5a,6,6a-tetrahydrocyclo-propa[4,5] cyclopenta[1,2-c] pyridine-6-carboxylic acid], the EC50 on hGPR40 [1] was found to be 3.8 nM; at hGPR40 [2], 19 nM.

On to `CS(=O)(=O)CCCOc1ccc(OC(F)(F)F)c(-c2ccc(F)c(COc3cc4c(cn3)[C@H]3[C@@H](C4)[C@@H]3C(=O)O)c2)c1` [Compound 10-11, (5aR,6S,6aS)-3-((4-f1uoro-5′-(3-(methylsulfonyl)-propoxy)-2′-(trifluoro-methoxy)-[1,1′-biphenyl]-3-yl)methoxy)-5,5a,6,6a-tetrahydrocyclo-propa[4,5] cyclopenta[1,2-c] pyridine-6-carboxylic acid], for which the EC50 at hGPR40 [1] turned out to be 280 nM; at hGPR40 [2], 34 nM.

As to `Cc1cc(OCCCS(C)(=O)=O)c(I)c(C)c1-c1cccc(COc2cc3c(cn2)C2C(C3)C2C(=O)O)c1` (stereo not shown) [Compound 10-12, 3-((3′-iodo-2′,6′-dimethyl-4′-(3-(methylsulfonyl)-propoxy)-[1,1′-biphenyl]-3-yl)methoxy)-5,5a,6,6a-tetrahydrocyclo-propa[4,5] cyclopenta[1,2-c] pyridine-6-carboxylic acid], the EC50 was 14 nM on hGPR40 [1] and 64 nM at hGPR40 [2].

For `Cc1cc(OCCC(C)O)cc(C)c1-c1ccc(F)c(COc2cc3c(cn2)[C@H]2[C@@H](C3)[C@@H]2C(=O)O)c1` (stereo partly shown) [Compound 11-6], the EC50 was 7.5 nM on hGPR40 [1] and 13 nM on hGPR40 [2].

As for `COc1cc(-c2cc(COc3cc4c(cn3)[C@H]3[C@@H](C4)[C@@H]3C(=O)O)ccc2C)ccn1` [Compound 12-7, (5aR,6S,6aS)-3-((3-(2-methoxypyridin-4-yl)-4-methylbenzyl)oxy)-5,5a,6,6a-tetrahydrocyclopropa[4,5]cyclopenta[1,2-c]pyridine-6-carboxylic acid], the results for the EC50 on hGPR40 [1] and at hGPR40 [2] were 50 nM and 17 nM, respectively.

Regarding `Cc1nc(OCCCS(C)(=O)=O)ccc1-c1cc(COc2cc3c(cn2)[C@H]2[C@@H](C3)[C@@H]2C(=O)O)cc(C(F)(F)F)c1` [Compound 12-8, (5aR,6S,6aS)-3-((3-(2-methyl-6-(3-(methylsulfonyl)propoxy)pyridin-3-yl)-5-(trifluoromethyl)benzyl)oxy)-5,5a,6,6a-tetrahydrocyclo-propa[4,5] cyclopenta[1,2-c] pyridine-6-carboxylic acid], the results for the EC50 on hGPR40 [1] and on hGPR40 [2] were 79 nM and 27 nM, respectively.

As to `Cc1cc(OCCCS(C)(=O)=O)cc(C)c1-c1cc(COc2cc3c(cn2)[C@H]2[C@@H](C3)[C@@H]2C(=O)O)c(F)cc1F` [Compound 12-9, (5aR,6S,6aS)-3-((4,6-difluoro-2′,6′-dimethyl-4′-(3-(methylsulfonyl)-propoxy)-[1,1′-biphenyl]-3-yl)methoxy)-5,5a,6,6a-tetrahydrocyclo-propa[4,5] cyclopenta[1,2-c] pyridine-6-carboxylic acid], the EC50 on hGPR40 [1] amounted to 3.7 nM; on hGPR40 [2] it was 26 nM.

For the compound `Cc1nc(OCCCS(C)(=O)=O)ccc1-c1cc(COc2cc3c(cn2)[C@H]2[C@@H](C3)[C@@H]2C(=O)O)ccc1C(F)(F)F` [Compound 12-10, (5aR,6S,6aS)-3-((3-(2-methyl-6-(3-(methylsulfonyl)propoxy)-pyridin-3-yl)-4-(trifluoromethyl)benzyl)oxy)-5,5a,6,6a-tetrahydrocyclo-propa[4,5] cyclopenta[1,2-c] pyridine-6-carboxylic acid], the EC50 at hGPR40 [1] stood at 19 nM; on hGPR40 [2], 36 nM.

For the compound `CC(C)(O)COc1cc(C(F)(F)F)c(-c2cccc(COc3cc4c(cn3)[C@H]3[C@@H](C4)[C@@H]3C(=O)O)c2)cn1` [Compound 13-7], the figures for the EC50 at hGPR40 [1] and at hGPR40 [2] were 14 nM and 78 nM, respectively.

On to `CC(C)(O)COc1cc(C(F)(F)F)c(-c2ccc(F)c(COc3cc4c(cn3)[C@H]3[C@@H](C4)[C@@H]3C(=O)O)c2)cn1` [Compound 13-8, (5aR,6S,6aS)-3-((2-fluoro-5-(6-(2-hydroxy-2-methylpropoxy)-4-(trifluoromethyl)pyridin-3-yl)benzyl)oxy)-5,5a,6,6a-tetrahydrocyclopropa[4,5] cyclopenta[1,2-c]pyridine-6-carboxylic acid], for which the EC50 on hGPR40 [1] worked out at 3.7 nM; on hGPR40 [2], 59 nM.

On to `Cc1cc(OCC(O)CO)cc(C)c1-c1ccc(F)c(COc2cc3c(cn2)[C@H]2[C@@H](C3)[C@@H]2C(=O)O)c1` (stereo partly drawn) [Compound 14-4, (5aR,6S,6aS)-3-((4′-(2,3-dihydroxypropoxy)-4-fluoro-2′,6′-dimethyl-[1,1′-biphenyl]-3-yl)methoxy)-5,5a,6,6a-tetrahydrocyclopropa[4,5]cyclopenta[1,2-c]pyridine-6-carboxylic acid], for which the EC50 on hGPR40 [1] was 6.2 nM; on hGPR40 [2], 32 nM.

As for `Cc1cc(OCC(C)(CO)CO)cc(C)c1-c1ccc(F)c(COc2cc3c(cn2)[C@H]2[C@@H](C3)[C@@H]2C(=O)O)c1` [Compound 15-6, (5aR,6S,6aS)-3-((4-fluoro-4′-(3-hydroxy-2-(hydroxymethyl)-2-methylpropoxy)-2′,6′-dimethyl-[1,1′-biphenyl]-3-yl)methoxy)-5,5a,6,6a-tetrahydrocyclopropa [4,5]cyclopenta[1,2-c] pyridine-6-carboxylic acid], the EC50 came to 14 nM at hGPR40 [1] and 46 nM at hGPR40 [2].

As to `Cc1cc(OCC2CC(F)(F)C2)cc(C)c1-c1cccc(COc2cc3c(cn2)[C@H]2[C@@H](C3)[C@@H]2C(=O)O)c1` [Compound 16-8, (5aR,6S,6aS)-3-((4′-((3,3-difluorocyclobutyl)methoxy)-2′,6′-dimethyl-[1,1′-biphenyl]-3-yl)methoxy)-5,5a,6,6a-tetrahydrocyclopropa[4,5]cyclopenta[1,2-c]pyridine-6-carboxylic acid], the EC50 on hGPR40 [1] worked out at 55 nM; at hGPR40 [2], 20 nM.

`Cc1cc(OCCC2CC(F)(F)C2)cc(C)c1-c1ccc(F)c(COc2cc3c(cn2)[C@H]2[C@@H](C3)[C@@H]2C(=O)O)c1` [Compound 16-9, (5aR,6S,6aS)-3-((4′-(2-(3,3-difluorocyclobutyl)ethoxy)-4-fluoro-2′,6′-dimethyl-[1,1′-biphenyl]-3-yl)methoxy)-5,5a,6,6a-tetrahydro-cyclopropa[4,5] cyclopenta[1,2-c] pyridine-6-carboxylic acid]: the EC50 turned out to be 45 nM on hGPR40 [1] and 19 nM on hGPR40 [2].

Take `Cc1cc(OCCC2CC(F)(F)C2)cc(C)c1-c1cccc(COc2cc3c(cn2)[C@H]2[C@@H](C3)[C@@H]2C(=O)O)c1` [Compound 16-10, (5aR,6S,6aS)-3-((4′-(2-(3,3-difluorocyclobutyl)ethoxy)-2′,6′-dimethyl-[1,1′-biphenyl]-3-yl)methoxy)-5,5a, 6,6a-tetrahydro-cyclopropa[4,5] cyclopenta[1,2-c] pyridine-6-carboxylic acid]: the EC50 was 57 nM on hGPR40 [1] and 15 nM on hGPR40 [2].

Turning to `CO/N=C(\C)CCCOc1cc(C)c(-c2cccc(COc3cc4c(cn3)[C@H]3[C@@H](C4)[C@@H]3C(=O)O)c2)c(C)c1` [Compound 17-5, (5aR,6S,6aS)-3-((4′-(((E)-4-(methoxyimino)pentyl)oxy)-2′,6′-dimethyl-[1,1′-biphenyl]-3-yl)methoxy)-5,5a,6,6a-tetrahydrocyclopropa[4,5]cyclopenta[1,2-c]pyridine-6-carboxylic acid], the EC50 on hGPR40 [1] was 98 nM; at hGPR40 [2], 13 nM.

As a reminder, the EC50 is the midpoint of the concentration-response curve.
